Tests used:
[1] = tested on: bone marrow-derived mast cells; test: antigen stimulation-dependent chemical mediator (β-hexosaminidase) release (degranulation) from mast cells; format: cell-based; details: TPEN 0, 2, 5 and 10 μM; IgE-sensitized mast cells stimulated with DNP-HSA for 30 minutes; FIG. 1
Procedure: The mast cells used were bone marrow-derived mast cells whose differentiation was induced by culturing bone marrow cells with interleukin-3 for 5 weeks. The obtained bone marrow-derived mast cells (1×10^7 cells) were sensitized with 1 μg/mL IgE antibody (SPE-7 clone; available from SIGMA) for 6 hours. After sensitization, the cells were resuspended in Tyrode's buffer (pH 7.4). The composition of the Tyrode's buffer is as described in Table 1.
The obtained mast cell suspension was stimulated with an antigen (DNP-HSA; dinitrophenyl conjugated Human Serum Albumin; available from SIGMA) at each concentration (shown in FIG. 1) for 30 minutes. To investigate the effect of zinc ions, a zinc ion chelator TPEN (0, 2, 5 and 10 μM) was allowed to coexist with the cells for 2 hours during the sensitization period and for 30 minutes of the stimulation. Chemical mediator β-hexosaminidase released from the mast cells was measured. The activity of β-hexosaminidase was measured with an absorption spectrometer at wavelength of 405 nm by using 4-nitrophenyl N-acetyl-β-D-glucosaminide (available from SIGMA) as a substrate. The extracellular release of entire β-hexosaminidase present in the cell was defined as 100%.

[2] = tested on: bone marrow-derived mast cells; test: cytokine production (IL-6 and TNF-α) of mast cells, ELISA; format: cell-based; details: TPEN 0, 2, 5 and 10 μM; DNP-HSA 100 ng/ml for 6 hours; FIG. 3
Procedure: As mast cells sensitized with IgE antibody, the cells prepared in the same way as described in Example 1 were used. After sensitization, the mast cells were resuspended in Tyrode's buffer. The mast cell suspension was stimulated with an antigen (DNP-HSA) at a concentration of 100 ng/ml for 6 hours. To investigate the effect of zinc ions, a zinc ion chelator TPEN (0, 2, 5 and 10 μM) was allowed to coexist with the cells for 2 hours during sensitization and for 6 hours of the stimulation.
The concentrations of cytokines (IL-6 and TNF-α) in the supernatant were determined using ELISA (BIOSOURCE).

[3] = tested on: passive cutaneous anaphylaxis; test: passive cutaneous anaphylaxis (type I allergy) model, Evans blue dye leakage; format: in vivo; details: TPEN intraperitoneally 30 minutes before DNP-BSA challenge; mouse ear; FIG. 4
Procedure: Mouse (6 week-old female, Balb/c Ajc1, CLEA Japan) was sensitized by subcutaneously administering 0.5 μg of IgE antibody (SPE-7, SIGMA) into the ear in order to induce passive cutaneous anaphylaxis. 30 minutes later, passive cutaneous anaphylaxis was induced by intravenous injection of 250 μg of antigen DNP-BSA (COSMOBIO) and 1.25 mg of Evans blue (SIGMA) into the tail of the mouse. In order to digitalize Evans blue dye leakage, the dye was extracted from the ear of the mouse using formamide. The extracted dye was measured by absorbance at wavelength of 620 nm. The amount of dye in each experiment was calculated from the analytical curve obtained by known amounts of Evans blue.

[4] = tested on: bone marrow-derived mast cells; test: restoration of TPEN effect on β-hexosaminidase release by enforced introduction of zinc ion; format: cell-based; details: TPEN 10 μM; 1 μM pyrithione and zinc ions during DNP-HSA stimulation; FIG. 2
Procedure: As mast cells sensitized with IgE antibody, the cells prepared in the same way as in Example 1 were used. After sensitization, the mast cells were resuspended in Tyrode's buffer. A zinc ion chelator TPEN (10 μM) was allowed to coexist with the cells for 2 hours during the sensitization period and for 30 minutes of the stimulation. To introduce zinc ions into the cells, the cells were treated with 1 μM pyrithione (Molecular probes, p-24193) during the stimulation, and zinc ions were added at each concentration (shown in FIG. 2) to Tyrode's buffer. The activity of β-hexosaminidase was measured in the same way as in Example 1. TPEN-untreated cells were used as a control, and the extracellular release of entire β-hexosaminidase present in the cell was defined as 100%.

c1ccc(CN(CCN(Cc2ccccn2)Cc2ccccn2)Cc2ccccn2)nc1 [TPEN, N,N,N′,N′-tetrakis(2-pyridylmethyl)ethylenediamine]
chemical mediator (β-hexosaminidase) release [1]: concentration-dependent suppressive effect
cytokine production (IL-6 and TNF-α in supernatant) [2]: dose dependent suppression
dye leakage of Evans blue [3]: suppressed dose-dependently
suppressive effect on the chemical mediator release after addition of zinc ions [4]: restored by the addition of the zinc ions

Reference: patent publication US20090203749A1, “AGENT FOR CONTROL OF DEGRANULATION REACTION AND CYTOKINE PRODUCTION” (RIKEN, priority 2005, published 2009)
